Laboratory results reported in patent publication US20190105337A1, “METHODS OF TREATING BACTERIAL INFECTIONS” (priority 2015, published 2019).

Legend:
[1] = In vitro hollow fiber model: pharmacokinetic parameters of meropenem and Compound I in the central compartment (Tables E, F)
Method: In Vitro PK-PD Model: Six medium sized hollow-fiber cartridges (FiberCell Systems) were used per experiment. Three strains studied in duplicate were used for each experiment. Log-phase cells were inoculated and incubated for 2 hours prior to the start of treatment to achieve about 10^8 CFU/mL. Target PK parameters are listed in Tables E and F. The exposures were based on the published literatures disclosed in Example 2. Samples were collected from the central compartment for the determination of drug concentrations over a 32 hour period and were analyzed using an LC-MS/MS method.

[2] = Example 3: adverse events during the multiple dose phase; type: in vivo, human
Method: All infusions were administered over 3 hours. Intensive plasma and urine PK sampling was obtained after dosing and assayed using validated HPLC/MS methods.
Table 7 summarizes the number (%) of subjects with at least one treatment emergent AE and number of adverse events during the multiple dose phase. […] All AEs, except 2 were mild or moderate in severity. […] There is no evidence that the addition of Compound I changed the AE profile of meropenem.

clinical [3] = conditions: human, in vivo
[4] = Example 2: treatment emergent adverse events, single dose phase; type: in vivo, human; conditions: Pooled Meropenem alone
Method: (§1) The combination of both drugs was administered on day 7. All drugs were infused over 3 hours. Plasma and urine samples were obtained and assayed using validated HPLC/MS methods.
No subjects discontinued due to AEs and no SAEs were observed.

clinical [5] = conditions: human, in vivo; remark: listed apart in the source
Method: as §1

[6] = combination Compound I/meropenem (Table F)

## C[C@@H](O)[C@H]1C(=O)N2C(C(=O)O)=C(S[C@@H]3CN[C@H](C(=O)N(C)C)C3)[C@H](C)[C@H]12 [meropenem, Meropenem]
[1]; [6]
  AUC, Average Meropenem Actual: 131.5 µg·h/mL
  Cmax, Average Meropenem Actual: 33500 ng/mL
  Half-Life, Average Meropenem Actual: 1.4 h
[1]; meropenem alone (Table E)
  AUC, Average Meropenem Actual: 129.0 µg·h/mL
  Cmax, Average Meropenem Actual: 33900 ng/mL
  Half-Life, Average Meropenem Actual: 1.3 h
[2]; Pooled 2 g Meropenem
  AEs, Number of Events: [24]
  Moderate or Severe AEs, N subjects: 0
  Subjects with at least one Treatment Emergent AE, %: 80%
[2]; Pooled Meropenem (1 and 2 g)
  AEs, Number of Events: [67]
  Moderate or Severe AEs, % subjects: 24%
  Moderate or Severe AEs, N subjects: 5
  Moderate or Severe AEs, Number of Events: [5]
  Subjects with at least one Treatment Emergent AE, %: 95%
[2]; alone or in combination
  Mild nausea: observed only in the subjects who received meropenem 2 g
Clinical [3]; Meropenem exposure (AUC)
  AUC: 211 µg·h/mL
Clinical [3]; weight adjusted clearance (Cl)
  clearance: 2.33 mL/min/kg
[4]
  Headache, %: 37%
  Infusion site pain, %: 10%
  PK catheter site hematoma, %: 21%
  PK catheter site pain, %: 10%
  Subjects with TEAEs, %: 95%
Clinical [5]
  AUC(0-∞): 130.34 µg·h/mL
  Cmax: 42540 ng/mL
Clinical [5]; Half-Life
  half-life: 0.98 h
Clinical [5]; Plasma Clearance
  clearance: 334 mL/min
Clinical [5]; Vss
  Vd: 25.9 L
